Source: patent US8557830B2, “RAF kinase modulators and methods of use” (Amgen Inc., priority 2007, dated 2013)
Read-outs that look alike come from different tables or passages of the source.

Columns and labels:
V600E mutant B-raf = target: T1, V600E mutant B-raf (Homo sapiens, UniProt P15056, V600E); test: B-raf cell-based assay (ratio of phospho-ERK1/2 to total ERK1/2 in A375 cells); details: A375 human melanoma cells, P-ERK/total ERK
T1 construct: A375 cells, a human melanoma cell line having the V600E mutant B-raf is used in this assay; endogenous in cells; host or cells: A375 human melanoma cells
T1 sequence (P15056 whole entry V600E): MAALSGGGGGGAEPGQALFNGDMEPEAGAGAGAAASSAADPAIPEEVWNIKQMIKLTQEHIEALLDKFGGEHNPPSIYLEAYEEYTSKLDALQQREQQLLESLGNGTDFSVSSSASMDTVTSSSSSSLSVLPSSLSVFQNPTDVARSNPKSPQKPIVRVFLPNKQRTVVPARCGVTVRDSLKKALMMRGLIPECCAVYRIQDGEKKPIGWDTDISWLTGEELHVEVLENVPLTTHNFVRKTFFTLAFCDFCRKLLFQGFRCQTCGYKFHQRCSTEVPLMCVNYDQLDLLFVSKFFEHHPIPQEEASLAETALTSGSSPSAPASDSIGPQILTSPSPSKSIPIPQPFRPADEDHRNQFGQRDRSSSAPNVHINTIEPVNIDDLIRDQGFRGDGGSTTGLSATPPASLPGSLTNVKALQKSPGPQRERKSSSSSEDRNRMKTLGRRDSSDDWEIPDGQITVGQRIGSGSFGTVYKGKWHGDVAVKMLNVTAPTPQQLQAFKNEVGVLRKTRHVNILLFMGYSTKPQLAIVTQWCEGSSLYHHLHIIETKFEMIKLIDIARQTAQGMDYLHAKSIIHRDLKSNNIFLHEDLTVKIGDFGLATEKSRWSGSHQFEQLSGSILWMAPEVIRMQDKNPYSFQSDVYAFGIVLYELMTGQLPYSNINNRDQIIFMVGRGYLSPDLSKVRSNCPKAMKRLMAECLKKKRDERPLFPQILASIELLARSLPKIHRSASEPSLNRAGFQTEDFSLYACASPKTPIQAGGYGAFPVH
Method: A cell-based assay was optimized to assay the ability of compounds to inhibit B-raf activity in a whole cell context. […] The cell-based assay quantifies the ratio of phospho-ERK1/2 to total ERK1/2 and can thereby assay the cellular inhibition of B-raf kinase activity. A375 cells are plated into 96 well plates and grown to confluence. The cells are then changed into starve media (DMEM/0.1% BSA) for 60 minutes. Compounds in DMSO dose curves are then diluted in starve media and added to cells. […] After a 60 minute incubation the cells are fixed for 20 minutes at RT in 4% formaldehyde with 0.1% Triton X-100, protease and phosphatase inhibitors in PBS. The cells are washed four times in PBS then blocked for 60 minutes using a one to one mix of Odyssey blocking buffer (Li-Cor Biosciences, Inc) and PBS. Primary antibodies (rabbit anti-phospho p42/p44 MAPK (P-ERK1/2) from Cell Signaling Technology and mouse anti-ERK2 from Santa Cruz Biotechnology) are diluted in blocking buffer, added to the cells and incubated overnight at 4° C. The cells are then washed four times in PBS/0.1% Tween-20. Secondary antibodies (anti-mouse IRDye 800CW from Rockland, Inc and anti-rabbit AlexaFlour680 from Molecular Probes) are diluted in blocking buffer/0.5% Tween and incubated on cells for 60 minutes. After 4 washes in PBS/0.1% Tween-20 the microplate is scanned on an Odyssey Infrared Imager (Li-Cor Bioscience) which can read the signal given by the two secondary antibodies on their respective channels. The ratio of P-ERK/total ERK is determined and IC50s generated using Excel-XLfit software.

recombinant HuBraf V600E = recombinant HuBraf V600E (Homo sapiens, UniProt P15056, V600E); test: B-raf Homogenous Time Resolved Fluorescent (HTRF) kinase assay; assay type: biochemical; details: human mutant B-raf V600E, substrate MEK1, 10 uM ATP, read-out: HTRF Enzyme assay Data IC50
Sequence of recombinant HuBraf V600E (P15056 whole entry V600E): as above
Method: B-raf-Homogenous Time Resolved Fluorescent (HTRF) Kinase Assay
The final concentration of the kinase reaction buffer is 50 mM Tris-HCL pH 7.5, 10 mM MgCl2, 0.5% glucose, 0.5 mM DTT, 0.01% BSA. […] The detection reaction proceeds for one hour and is read on a RubyStar (BMG Labtech) counter. IC50s for the test compounds are generated using Excel-XLfit software.

IC50 (V600E mutant B-raf; Table I)	IC50 (recombinant HuBraf V600E; Table I)	IC50 (V600E mutant B-raf; Table II)	IC50 (recombinant HuBraf V600E; Table II)	Structure (SMILES)
1000 nM	171 nM	–	–	Cc1ccc2c(Nc3ccc(C#N)cc3)nccc2c1Nc1ncccc1-c1ncnc2cc[nH]c12 [Example 63, 4-((6-methyl-5-((3-(5H-pyrrolo[3,2-d]pyrimidin-4-yl)-2-pyridinyl)amino)-1-isoquinolinyl)amino)benzonitrile]
11 nM	10 nM	–	–	Cc1ccc2c(Nc3ccc4c(c3)NC(=O)[C@@H]4C)nccc2c1Nc1ncccc1-c1ncnc2[nH]ccc12 [Example 47, (3R)-3-methyl-6-((6-methyl-5-((3-(7H-pyrrolo[2,3-d]pyrimidin-4-yl)-2-pyridinyl)amino)-1-isoquinolinyl)amino)-1,3-dihydro-2H-indol-2-one]
7 nM	7 nM	–	–	Cc1ccc2c(Nc3ccc4c(C)cc(=O)[nH]c4c3)nccc2c1Nc1ncccc1-c1ncnc2[nH]ccc12 [Example 52, 4-methyl-7-((6-methyl-5-((3-(7H-pyrrolo[2,3-d]pyrimidin-4-yl)-2-pyridinyl)amino)-1-isoquinolinyl)amino)-2(1H)-quinolinone]
–	–	12 nM	5 nM	Cc1ccc2c(Nc3ccc(Cl)cc3)ncnc2c1Nc1ncccc1-c1ncnc2[nH]cnc12 [Example 77, N-4-(4-chlorophenyl)-7-methyl-N-8-(3-(9H-purin-6-yl)-2-pyridinyl)-4,8-quinazolinediamine]
5 nM	3 nM	–	–	Cc1ccc2c(Nc3ccc(Cl)cc3)nccc2c1Nc1ncccc1-c1ncnc2[nH]ccc12 [Example 42, N-1-(4-chlorophenyl)-6-methyl-N-5-(3-(7H-pyrrolo[2,3-d]pyrimidin-4-yl)-2-pyridinyl)-1,5-isoquinolinediamine]
12 nM	25 nM	–	–	Cc1ccc2c(Nc3ccc4c(c3)NC(=O)C4(C)C)nccc2c1Nc1ncccc1-c1ncnc2[nH]ccc12 [Example 51, 3,3-dimethyl-6-((6-methyl-5-((3-(7H-pyrrolo[2,3-d]pyrimidin-4-yl)-2-pyridinyl)amino)-1-isoquinolinyl)amino)-1,3-dihydro-2H-indol-2-one]
15 nM	11 nM	–	–	Cc1ccc2c(Nc3ccc4snc(C)c4c3)nccc2c1Nc1ncccc1-c1ncnc2[nH]ccc12 [Example 48, 6-methyl-N-1-(3-methyl-1,2-benzisothiazol-5-yl)-N-5-(3-(7H-pyrrolo[2,3-d]pyrimidin-4-yl)-2-pyridinyl)-1,5-isoquinolinediamine]
52 nM	47 nM	–	–	Cc1ccc2c(Nc3ccc(C(F)(F)F)cc3)nccc2c1Nc1ncccc1-c1ncnc2[nH]ccc12 [Example 53, 6-methyl-N-5-(3-(7H-pyrrolo[2,3-d]pyrimidin-4-yl)-2-pyridinyl)-N-1-(4-(trifluoromethyl)phenyl)-1,5-isoquinolinediamine]

The remaining lines, values behind:

Structure (SMILES)	IC50 (V600E mutant B-raf; Table I)	IC50 (recombinant HuBraf V600E; Table I)	IC50 (V600E mutant B-raf; Table II)	IC50 (recombinant HuBraf V600E; Table II)
Cc1ccc2c(Nc3ccc(C#N)cc3)ncnc2c1Nc1ncccc1-c1ncnc2[nH]ncc12 [Example 70, 4-((7-methyl-8-((3-(1H-pyrazolo[3,4-d]pyrimidin-4-yl)-2-pyridinyl)amino)-4-quinazolinyl)amino)benzonitrile]	–	–	86 nM	5 nM
Cc1ccc2c(Nc3ccc4c(c3)OC(F)(F)O4)nccc2c1Nc1ncccc1-c1ncnc2[nH]cnc12 [Example 59, N-1-(2,2-difluoro-1,3-benzodioxol-5-yl)-6-methyl-N-5-(3-(9H-purin-6-yl)-2-pyridinyl)-1,5-isoquinolinediamine]	6 nM	6 nM	–	–
C#Cc1cccc(Nc2ncnc3c(Nc4ncccc4-c4ncnc5[nH]cnc45)c(C)ccc23)c1 [Example 75, N-4-(3-ethynylphenyl)-7-methyl-N-8-(3-(9H-purin-6-yl)-2-pyridinyl)-4,8-quinazolinediamine]	–	–	28 nM	3 nM
Cc1ccc2c(Nc3cccc(C(F)(F)F)c3)nccc2c1Nc1ncccc1-c1ncnc2[nH]cnc12 [Example 58, 6-methyl-N-5-(3-(9H-purin-6-yl)-2-pyridinyl)-N-1-(3-(trifluoromethyl)phenyl)-1,5-isoquinolinediamine]	6 nM	6 nM	–	–
Cc1ccc2c(Nc3ccc(OC(F)F)cc3)ncnc2c1Nc1ncccc1-c1ncnc2[nH]cnc12 [Example 76, N-4-(4-(difluoromethoxy)phenyl)-7-methyl-N-8-(3-(9H-purin-6-yl)-2-pyridinyl)-4,8-quinazolinediamine]	–	–	5 nM	9 nM
